Data published in ChEMBL document CHEMBL5233270, “DYRK1A Inhibitors as Potential Therapeutics for β-Cell Regeneration for Diabetes” (J Med Chem, 2021).
pEC50, pIC50: −log10 of the molar value. Each block holds one compound with its values, some of them ahead of it.

Key:
[1] = Cytotoxicity against mouse R7T1 cells assessed as reduction in cell viability; format: functional
[2] = molecular target: Glycogen synthase kinase-3 beta (Homo sapiens, UniProt P49841); assay: Inhibition of GSK3beta (unknown origin)
Sequence of Glycogen synthase kinase-3 beta (P49841 whole entry): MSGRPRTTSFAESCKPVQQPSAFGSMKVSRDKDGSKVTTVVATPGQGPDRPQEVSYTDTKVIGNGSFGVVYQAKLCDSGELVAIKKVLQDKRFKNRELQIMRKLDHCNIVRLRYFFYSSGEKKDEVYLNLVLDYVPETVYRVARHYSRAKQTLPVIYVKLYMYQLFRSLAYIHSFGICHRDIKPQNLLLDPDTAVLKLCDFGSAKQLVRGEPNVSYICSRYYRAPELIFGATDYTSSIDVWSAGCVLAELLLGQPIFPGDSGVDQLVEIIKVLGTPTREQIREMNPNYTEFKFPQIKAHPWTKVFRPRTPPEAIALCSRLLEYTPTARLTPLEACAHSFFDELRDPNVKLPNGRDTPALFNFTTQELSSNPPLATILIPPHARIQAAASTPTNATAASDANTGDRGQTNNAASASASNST

[3] = Selectivity ratio of CC50 for mouse R7T1 cells to ECmin for mouse pancreatic islet cells; format: toxicity; settings: R7T1 cells (CC50) and pancreatic islet cells (ECmin)
[4] = Induction of rat Pancreatic beta cell proliferation at 1 uM assessed as increase in fold chain after 6 days in presence of EdU incorporation by Cell-Titer Glo assay; format: functional; settings: time 6 day
[5] = Synergistic […] activity against human Pancreatic beta cell proliferation in NSG mouse model at 0.5 ug/kg by immuno labelling assay; format: functional
[6] = Synergistic […] activity against human Pancreatic beta cell proliferation in presence of GLP1 at 5 nM by Ki-67 immuno labelling assay; format: functional
[7] = Volume of distribution at steady state in mouse, po; format: ADME; settings: in vivo
[8] = molecular target: Dual specificity protein kinase CLK1/CLK2/CLK4 (Homo sapiens) (UniProt Q9HAZ1+P49759+P49760); assay: Inhibition of CLK1/2/4 (unknown origin) relative to control; format: protein assay; settings: concentration not given here
Sequence of Dual specificity protein kinase CLK1/CLK2/CLK4 (Homo sapiens) (P49759 whole entry, looked up): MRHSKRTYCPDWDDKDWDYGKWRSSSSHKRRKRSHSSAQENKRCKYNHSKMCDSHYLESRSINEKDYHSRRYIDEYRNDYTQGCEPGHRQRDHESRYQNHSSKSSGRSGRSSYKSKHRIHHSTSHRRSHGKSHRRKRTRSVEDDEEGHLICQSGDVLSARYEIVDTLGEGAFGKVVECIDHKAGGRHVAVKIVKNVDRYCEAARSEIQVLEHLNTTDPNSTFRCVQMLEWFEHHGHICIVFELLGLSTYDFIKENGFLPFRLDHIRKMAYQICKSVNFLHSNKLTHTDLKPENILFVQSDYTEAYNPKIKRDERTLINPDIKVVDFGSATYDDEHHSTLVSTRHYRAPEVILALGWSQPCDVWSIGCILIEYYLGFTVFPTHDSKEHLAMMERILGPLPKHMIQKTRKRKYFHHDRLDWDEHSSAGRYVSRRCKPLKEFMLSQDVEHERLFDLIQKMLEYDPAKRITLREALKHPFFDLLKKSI
Sequence of Dual specificity protein kinase CLK1/CLK2/CLK4 (Homo sapiens) (P49760 whole entry, looked up): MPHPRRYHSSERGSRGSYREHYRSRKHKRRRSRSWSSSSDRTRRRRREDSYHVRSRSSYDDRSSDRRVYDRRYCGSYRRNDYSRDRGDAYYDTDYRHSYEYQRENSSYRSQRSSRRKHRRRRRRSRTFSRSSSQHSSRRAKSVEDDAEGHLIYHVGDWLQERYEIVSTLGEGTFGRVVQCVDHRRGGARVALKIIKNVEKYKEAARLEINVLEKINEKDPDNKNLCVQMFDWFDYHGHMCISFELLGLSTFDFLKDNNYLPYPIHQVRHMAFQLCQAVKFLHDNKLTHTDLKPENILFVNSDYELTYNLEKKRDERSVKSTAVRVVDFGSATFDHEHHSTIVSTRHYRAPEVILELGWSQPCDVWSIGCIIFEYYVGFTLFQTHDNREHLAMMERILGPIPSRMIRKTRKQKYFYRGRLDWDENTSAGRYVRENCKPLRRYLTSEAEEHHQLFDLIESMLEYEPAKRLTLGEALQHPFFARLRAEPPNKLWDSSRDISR
Sequence of Dual specificity protein kinase CLK1/CLK2/CLK4 (Homo sapiens) (Q9HAZ1 whole entry, looked up): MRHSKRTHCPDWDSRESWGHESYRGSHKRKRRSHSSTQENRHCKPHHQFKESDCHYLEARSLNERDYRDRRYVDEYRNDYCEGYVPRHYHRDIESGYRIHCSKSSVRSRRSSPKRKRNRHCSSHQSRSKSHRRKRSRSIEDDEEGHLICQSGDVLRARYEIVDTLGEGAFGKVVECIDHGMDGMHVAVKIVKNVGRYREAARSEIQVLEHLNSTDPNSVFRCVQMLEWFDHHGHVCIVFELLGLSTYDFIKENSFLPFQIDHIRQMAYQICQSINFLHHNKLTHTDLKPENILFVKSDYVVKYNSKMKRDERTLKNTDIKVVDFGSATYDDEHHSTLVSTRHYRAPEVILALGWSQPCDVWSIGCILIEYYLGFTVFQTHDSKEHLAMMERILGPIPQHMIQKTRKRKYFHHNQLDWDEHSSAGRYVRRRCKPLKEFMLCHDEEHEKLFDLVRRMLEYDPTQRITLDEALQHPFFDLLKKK

[9] = AUC (0 to infinity) in mouse at 1 mg/kg, po; format: ADME, organism-based; parameters: dose 1 mg/kg, route po; settings: in vivo
[10] = Induction of human Pancreatic beta cell proliferation at 50 mg/kg measured after 5 days in presence of EdU incorporation by Cell-Titer Glo assay; format: functional; settings: 120 h

Structure (SMILES): CC(C)Oc1ccc(F)c(-c2cnc(N)c(C(=O)Nc3cnccc3N3CCCC(C(=O)O)C3)n2)c1 (centres undefined)
Emin [1]: <100 nM

pIC50 [2]: < 5.08
Structure (SMILES): COc1ccc2c(c1)[nH]c1c(CO)nccc12

Structure (SMILES): CCOC(=O)c1cnc2ccc(-c3ccncc3)nc2c1N[C@H]1CC[C@H](CN2CCOCC2)CC1
Emin [1]: 3.3 nM
selectivity ratio [3]: 143

Structure (SMILES): Nc1ncnc2c1c(I)cn2[C@@H]1O[C@H](CO)[C@@H](O)[C@H]1O [IODOTUBERCIDIN]
fold change (FC) [4]: 10

Structure (SMILES): CCOC(=O)c1cnc2ccc(-c3cc(Cl)c(O)c(Cl)c3)nc2c1NC1CCN(C)CC1
Emin [1]: 10 nM
selectivity ratio [3]: 117

Structure (SMILES): COc1ccc2c(c1)[nH]c1c(C)nccc12 [HARMINE]
Activity [5]: 0.8%
Activity [6]: 5%

Vdss [7]: 11 L/kg
inhibition [8]: 90%
AUC [9]: 3.27 µM·h
Structure (SMILES): CCN1CCN(C(=O)Nc2cc(-c3cn(C4CCOCC4)c4cnccc34)ccn2)CC1

Structure (SMILES): CCOC(=O)c1cnc2ccc(-c3ccncc3)nc2c1N[C@H]1CC[C@H](CN(C)C)CC1
selectivity ratio [3]: 259

Structure (SMILES): Nc1ncc(-c2ccccc2)nc1C(=O)Nc1cnccc1N1CCC(C(=O)O)CC1
pEC50 [10]: 9.12
